Measurements: patent US20090170902A1, “COMPOUNDS WHICH POTENTIATE GLUTAMATE RECEPTOR AND USES THEREOF IN MEDICINE” (priority 2006, published 2009)

Target: T1, human GluR2 flip (unedited) AMPA receptor subunit (Homo sapiens, UniProt P42262)
T1 construct: expressed in transfected cells
Experiment: Calcium influx fluorescence assay (FLUO4, FLIPR)
Type: cell-based
Conditions: HEK293; HEK 293 cells expressing human GluR2 flip (unedited); relative to fluorescence increase induced by cyclothiazide at maximum response; read-out: activity relative to cyclothiazide (at its maximal response)
Experimental: 384 well plates are prepared containing confluent monolayer of HEK 293 cells either stably expressing or transiently transfected with human GluR2 flip (unedited) AMPA receptor subunit. These cells form functional homotetrameric AMPA receptors. The tissue culture medium in the wells are discarded and the wells are each washed three times with standard buffer (80 μL) for the stable cell line (145 mM NaCl, 5 mM KCl, 1 mM MgCl2, 2 mM CaCl2, 20 mM N-[2-hydroxyethyl]-piperazine-N-[2-ethanesulfonic acid (HEPES), 5.5 mM glucose, pH 7.3) or with a Na-free buffer for the transient transfected cells (145 mM N-methyl-glucamine instead of NaCl). The plates are then incubated for 60 minutes in the dark with 2 μM FLUO4-AM dye (20 μL) (Molecular Probes, Netherlands) at room temperature to allow cell uptake of the FLUO-4AM, which is then converted to FLUO-4 by intracellular esterases which is unable to leave the cell. After incubation each well is washed three times with buffer (80 μL) (30 μL of buffer remained in each well after washing).
Compounds of the invention (or reference compounds such as cyclothiazide) are dissolved in dimethylsulfoxide (DMSO) at a stock concentration of 10 mM. These solutions are further diluted with DMSO using a Biomek FX (Beckman Coulter) in a 384 compound plate. Each dilution (1 μL) is transferred to another compound plate and buffer (50 μL) is added. An agonist stimulus (glutamate) plate is prepared by dissolving sodium glutamate in water to give a concentration of 100 mM. This solution is diluted with buffer to give a final concentration of 500 μM and dispensed into another 384-well plate (50 μL/well) using a Multidrop (Thermolabsystems).
The cell plate is then transferred into a fluorescence imaging plate based reader [such as the FLIPR384 (Molecular Devices)]. A baseline fluorescence reading is taken over a 10 to 240 second period, and then 10 μL from each plate containing a compound of the invention made up in standard buffer solution (in a concentration range from […]) is added (to give a final concentration in the range 30 μM to 3 pM). The fluorescence is read over 5 minute period. 500 μM glutamate solution (10 μL) is added (to give a final concentration of 100 μM). The fluorescence is then read over a 4 minute period. The activities of the compounds of the invention and reference compounds are determined by measuring peak fluorescence after the last addition. The activity is also expressed relative to the fluorescence increase induced by cyclothiazide at their maximum response (i.e. greater than 30 μM).
The assay described above is believed to have an effective limit of detection of a pEC50 in the region of 3.5-4.0 due to the limitations of compound solubility. The pEC50 result is generally considered to be accurate +/−0.3.

T1 sequence (P42262 25-883 isoform P42262-2 limits assumed): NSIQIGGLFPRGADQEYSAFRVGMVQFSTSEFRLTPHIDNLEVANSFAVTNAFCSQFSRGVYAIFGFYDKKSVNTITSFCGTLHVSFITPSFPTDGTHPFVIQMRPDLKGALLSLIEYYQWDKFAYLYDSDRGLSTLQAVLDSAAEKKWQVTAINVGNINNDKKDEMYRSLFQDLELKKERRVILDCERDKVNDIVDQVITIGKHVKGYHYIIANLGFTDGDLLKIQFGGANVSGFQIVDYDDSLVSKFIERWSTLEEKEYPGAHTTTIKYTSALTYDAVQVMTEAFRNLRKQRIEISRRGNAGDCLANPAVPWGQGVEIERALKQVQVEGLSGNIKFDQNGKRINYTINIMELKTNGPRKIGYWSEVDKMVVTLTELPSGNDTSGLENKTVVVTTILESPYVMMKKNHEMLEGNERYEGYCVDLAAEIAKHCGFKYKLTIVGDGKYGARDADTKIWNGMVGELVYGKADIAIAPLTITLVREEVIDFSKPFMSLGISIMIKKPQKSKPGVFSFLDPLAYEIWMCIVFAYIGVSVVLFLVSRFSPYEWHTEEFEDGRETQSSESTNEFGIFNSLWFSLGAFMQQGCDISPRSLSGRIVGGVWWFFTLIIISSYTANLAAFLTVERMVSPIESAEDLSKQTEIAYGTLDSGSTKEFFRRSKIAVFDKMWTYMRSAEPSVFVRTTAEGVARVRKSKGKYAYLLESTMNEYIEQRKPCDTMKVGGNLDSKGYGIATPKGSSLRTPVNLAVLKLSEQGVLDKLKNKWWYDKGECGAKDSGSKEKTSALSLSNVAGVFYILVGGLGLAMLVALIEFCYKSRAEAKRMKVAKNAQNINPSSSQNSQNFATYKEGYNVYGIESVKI

SMILES: Cc1ccc(-c2ccc([C@H]3OCC[C@H]3NS(=O)(=O)C(C)C)cc2)cn1 (relative stereo) [Example 2, N-{cis-2-[4-(6-methyl-3-pyridinyl)phenyl]tetrahydro-3-furanyl}-2-propanesulfonamide]
- Emax: ≥ 50%

SMILES: CC(=O)c1cccc(-c2ccc([C@H]3OCC[C@H]3NS(=O)(=O)C(C)C)cc2)c1 (relative stereo) [Example 8, N-[cis-2-(3′-acetyl-4-biphenylyl)tetrahydro-3-furanyl]-2-propanesulfonamide]
- Emax: ≥ 50%

SMILES: CC(C)S(=O)(=O)N[C@@H]1CCO[C@@H]1c1ccc(-c2cccs2)cc1 (relative stereo) [Example 9, N-{cis-2-[4-(2-thienyl)phenyl]tetrahydro-3-furanyl}-2-propanesulfonamide]
- Emax: ≥ 50%

SMILES: CC(C)S(=O)(=O)N[C@@H]1CCO[C@@H]1c1ccc(-c2ccc(C#N)cc2)cc1 (relative stereo) [Example 7, N-[cis-2-(4′-cyano-4-biphenylyl)tetrahydro-3-furanyl]-2-propanesulfonamide]
- Emax: ≥ 50%

SMILES: CC(C)S(=O)(=O)N[C@@H]1CCO[C@@H]1c1ccc(-c2cncc(F)c2)cc1 (relative stereo) [Example 4, N-{cis-2-[4-(5-fluoro-3-pyridinyl)phenyl]tetrahydro-3-furanyl}-2-propanesulfonamide]
- Emax: ≥ 50%

SMILES: CC(C)S(=O)(=O)N[C@@H]1CCO[C@@H]1c1ccc(-c2ccc(F)cc2)cc1 (relative stereo) [Example 6, N-[cis-2-(4′-fluoro-4-biphenylyl)tetrahydro-3-furanyl]-2-propanesulfonamide]
- Emax: ≥ 50%

SMILES: CC(C)S(=O)(=O)N[C@@H]1CCO[C@@H]1c1ccc(-c2ccc(F)nc2)cc1 (relative stereo) [Example 1, N-{cis-2-[4-(6-fluoro-3-pyridinyl)phenyl]tetrahydro-3-furanyl}-2-propanesulfonamide]
- Emax: ≥ 50%

SMILES: CC(C)S(=O)(=O)N[C@@H]1CCO[C@@H]1c1ccc(-c2ccc(F)cn2)cc1 (relative stereo) [Example 3, N-{cis-2-[4-(5-fluoro-2-pyridinyl)phenyl]tetrahydro-3-furanyl}-2-propanesulfonamide]
- Emax: ≥ 50%

SMILES: Cc1cncc(-c2ccc([C@H]3OCC[C@H]3NS(=O)(=O)C(C)C)cc2)c1 (relative stereo) [Example 5, N-{cis-2-[4-(5-methyl-3-pyridinyl)phenyl]tetrahydro-3-furanyl}-2-propanesulfonamide]
- Emax: ≥ 50%
